Reference: article PMC10466176, “Sequential analysis for identification of byproduct from N-benzylation reaction: wound healing and anti-inflammatory potential of the byproduct 4-chlorobenzyl 2-((4-chlorobenzyl)amino)benzoate” (RSC Advances, 2023)

Target: T1, COX-2 (cyclooxygenase-2) (Homo sapiens, UniProt P35354)
T1 construct: gene PTGS2
T1 sequence (P35354 18-604): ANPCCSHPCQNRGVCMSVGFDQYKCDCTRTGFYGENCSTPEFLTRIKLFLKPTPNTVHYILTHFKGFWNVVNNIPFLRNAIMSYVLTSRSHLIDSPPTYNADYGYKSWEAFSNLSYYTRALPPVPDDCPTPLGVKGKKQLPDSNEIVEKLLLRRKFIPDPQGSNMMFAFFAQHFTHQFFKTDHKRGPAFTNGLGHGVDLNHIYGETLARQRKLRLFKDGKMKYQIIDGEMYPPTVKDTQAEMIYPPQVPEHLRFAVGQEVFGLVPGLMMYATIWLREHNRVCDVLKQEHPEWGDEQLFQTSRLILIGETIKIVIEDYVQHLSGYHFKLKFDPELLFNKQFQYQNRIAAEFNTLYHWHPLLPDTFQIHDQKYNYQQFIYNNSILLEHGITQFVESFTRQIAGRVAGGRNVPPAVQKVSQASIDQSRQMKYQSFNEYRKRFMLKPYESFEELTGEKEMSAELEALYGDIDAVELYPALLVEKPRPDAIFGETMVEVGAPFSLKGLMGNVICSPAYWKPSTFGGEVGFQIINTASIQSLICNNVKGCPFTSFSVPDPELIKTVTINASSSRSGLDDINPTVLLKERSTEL
Experiment: COX-2 enzyme assay with ELISA kit (SEA699Hu)
Assay type: biochemical

IC50: 410 nM
SMILES: O=C(OCc1ccc(Cl)cc1)c1ccccc1NCc1ccc(Cl)cc1 [CCAB, 4-chlorobenzyl 2-((4-chlorobenzyl)amino)benzoate]
